Results taken from patent US20120058499A1, “Bioluminescent Detection of Protease Activity” (priority 2010, published 2012).

What was measured:
USP2core = target: T1, USP2core (Homo sapiens, UniProt O75604); test: Isopeptidase cleavage of substrates (DUB-Glo luminescence / fluorescence), S/B; assay type: biochemical; details: USP2core 0.5 nM
T1 construct: USP2core (the common catalytic core domain of the two isoforms of USP2, USP2a and USP2b)
T1 sequence (O75604 267-599 limits assumed): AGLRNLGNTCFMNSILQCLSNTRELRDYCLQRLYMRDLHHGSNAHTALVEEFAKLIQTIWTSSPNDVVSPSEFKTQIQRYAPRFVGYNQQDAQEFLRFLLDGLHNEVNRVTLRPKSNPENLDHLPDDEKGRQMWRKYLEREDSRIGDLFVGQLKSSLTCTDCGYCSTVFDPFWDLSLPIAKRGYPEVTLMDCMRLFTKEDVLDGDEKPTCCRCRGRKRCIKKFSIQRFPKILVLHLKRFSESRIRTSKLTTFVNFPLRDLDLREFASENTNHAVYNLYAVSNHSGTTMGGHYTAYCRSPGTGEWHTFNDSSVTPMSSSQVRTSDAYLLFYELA
Experimental: (§1) The Ub-amino-luciferin substrate was compared to the Z-Arg-Leu-Arg-Gly-Gly (SEQ ID NO: 1)-amino-luciferin substrate (Promega DUB-Glo™ substrate) to determine the limit of detection of the activities of four different isopeptidases (UCHL3, USP2core, USP7, and USP8). For all enzymes, these two substrates were tested in parallel using the DUB-Glo™ assay system (Promega) according to the manufacturer's instructions. All enzymes were diluted into 50 mM HEPES, pH 7.5, 10 mM DTT, 0.1% Prionex (Sigma-Aldrich). For testing Z-Arg-Leu-Arg-Gly-Gly (SEQ ID NO: 1)-amino-luciferin, final isopeptidase concentrations were as follows: UCHL3 equal to approximately 0.35 to 50 nM; USP2core equal to approximately 10 to 500 nM, USP7 equal to approximately 0.1 to 50 nM, and USP8 equal to approximately 20 to 500 nM. For testing Ub-amino-luciferin, final isopeptidase concentrations were as follows: UCHL3 equal to approximately 0.05 to 50 pM; USP2core, USP7, and USP8 equal to approximately 0.5 to 500 pM. Reactions were assembled through addition of 50 μl of diluted enzyme and 50 μl of DUB-Glo™ reaction mixture supplemented with either Z-Arg-Leu-Arg-Gly-Gly (SEQ ID NO: 1)-amino-luciferin (final concentration of 20 μM) or Ub-amino-luciferin (final concentration of 100 nM). The signal in relative luminescence units (RLUs) was measured at 30 minutes from reaction assembly on an Envision multi-label plate reader (Perkin Elmer). The signal to background ratio (S/B) was calculated as (maximum signal−signal in absence of enzyme)/(signal in absence of enzyme).
(§2) The Ub-amino-luciferin (Ub-LUC) substrate was compared to the Ub-AMC substrate (FIG. 3) and the Ub-Rhodamine110 (Ub-Rho) substrate (FIG. 4), to determine the limit of detection for the activities of four different isopeptidases (UCHL3, USP2core, USP7, and USP8). All enzymes were diluted into 50 mM Tris, pH 8.0, 5 mM DTT, 0.05% (w/v) CHAPS. Final isopeptidase concentrations were as follows: UCHL3 equal to approximately 2 pM to 40 pM; USP2core, USP7, and USP8 were equal to approximately 10 to 1000 nM. Either Ub-AMC or Ub-Rhodamine110 (final concentration equal to 250 nM) were diluted into 50 mM Tris, pH 8.0, 5 mM DTT, 0.05% (w/v) CHAPS. Reactions were assembled through the addition of 50 μl diluted isopeptidase to 50 μl of either Ub-AMC or Ub-Rhodamine110, and the signal in relative fluorescence units (RFUs) was measured at 30 minutes on an Envision multi-label plate reader (Perkin Elmer). For Ub-AMC, fluorescence was monitored with filters corresponding to excitation at 340 nm and emission at 460 nm. For Ub-Rhodamine110, fluorescence was monitored with filters corresponding to excitation at 485 nm and emission at 531 nm. The signal to background (S/B) was calculated as (maximum signal−signal in absence of enzyme)/(signal in absence of enzyme).

USP8 = target: T2, USP8 (Homo sapiens, UniProt P40818); test: as above; assay type: biochemical; details: USP8 0.5 nM
T2 sequence (P40818 1-1118): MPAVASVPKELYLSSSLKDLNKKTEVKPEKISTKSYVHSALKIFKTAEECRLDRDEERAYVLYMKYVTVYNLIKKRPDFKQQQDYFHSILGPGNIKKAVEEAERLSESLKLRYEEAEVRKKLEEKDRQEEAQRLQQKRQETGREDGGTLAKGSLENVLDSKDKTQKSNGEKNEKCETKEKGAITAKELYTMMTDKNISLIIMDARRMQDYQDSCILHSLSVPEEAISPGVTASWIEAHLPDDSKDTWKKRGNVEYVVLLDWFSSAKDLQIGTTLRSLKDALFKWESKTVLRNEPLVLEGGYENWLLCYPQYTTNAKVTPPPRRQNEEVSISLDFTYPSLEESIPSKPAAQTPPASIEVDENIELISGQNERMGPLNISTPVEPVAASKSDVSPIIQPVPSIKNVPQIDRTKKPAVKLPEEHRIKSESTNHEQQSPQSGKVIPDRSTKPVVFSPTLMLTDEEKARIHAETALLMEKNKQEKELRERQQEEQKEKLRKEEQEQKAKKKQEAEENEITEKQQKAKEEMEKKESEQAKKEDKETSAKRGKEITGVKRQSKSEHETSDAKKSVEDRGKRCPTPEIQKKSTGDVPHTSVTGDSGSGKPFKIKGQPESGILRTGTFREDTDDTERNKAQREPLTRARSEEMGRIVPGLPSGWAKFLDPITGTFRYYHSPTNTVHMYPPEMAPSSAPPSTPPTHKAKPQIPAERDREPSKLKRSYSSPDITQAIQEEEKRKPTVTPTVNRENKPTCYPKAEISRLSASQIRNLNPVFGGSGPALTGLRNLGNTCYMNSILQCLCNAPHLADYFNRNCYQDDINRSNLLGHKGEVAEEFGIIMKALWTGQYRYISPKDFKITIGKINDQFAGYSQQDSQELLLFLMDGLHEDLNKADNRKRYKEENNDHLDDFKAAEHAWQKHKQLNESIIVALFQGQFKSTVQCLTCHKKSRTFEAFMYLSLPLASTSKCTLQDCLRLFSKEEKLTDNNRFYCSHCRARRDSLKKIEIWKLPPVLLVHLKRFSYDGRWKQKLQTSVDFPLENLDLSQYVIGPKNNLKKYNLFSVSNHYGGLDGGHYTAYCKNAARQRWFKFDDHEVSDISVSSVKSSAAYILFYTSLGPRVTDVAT
Experimental: as §1, §2

S/B increase relative to both Ub-AMC and Ub-Rhodamine110 (USP2core): ~100 fold
S/B increase relative to both Ub-AMC and Ub-Rhodamine110 (USP8): ~100 fold
Substance: Ub(1-76)-aminoluciferin [Ub-LUC]
